≈ marks a conversion by molar mass, not a printed value. Structures can show the parent of a compound that is named as a salt.
Tests used:
[1] = Interconversion of HPLC peaks A and B on standing in buffers; type: physicochemical; conditions: buffers of pH 3, 5 and 7 at room temperature
Excerpt: TAN-588 as obtained in this manner has two peaks on the reverse-phase HPLC. These peaks are temporarily referred to as A and B, respectively, whereby the phenomena to be described in the following are observed. […] Therefore, it is thought impossible to separate TAN-588 itself into A and B by means of the presently known separation techniques. However, the conversion of TAN-588 into the p-nitrobenzyl ester or benzhydryl derivative makes it possible for such a compound to be separated into the A type and B type of the compound, respectively.

[2] = Solubility; type: physicochemical
[3] = tested on: Escherichia coli PG 8; assay: Inhibition zone against test microorganism without addition of β-lactamase; type: cell-based; conditions: test microorganism Escherichia coli PG 8; no β-lactamase added
[4] = biological target: Cephalosporinase (Enterobacter cloacae, UniProt P05364); assay: Stability against β-lactamase (cephalosporinase), test microorganism Escherichia coli PG 8; type: biochemical; conditions: Cephalosporinase derived from Enterobacter cloacae, -- = No inhibition zone indicated
Excerpt: *^2 Derived from Enterobacter cloacae.
*^3 No inhibition zone indicated.

[5] = biological target: T1, Penicillinase (Bacillus cereus, UniProt P10424); assay: Stability against β-lactamase (penicillinase), test microorganism Escherichia coli PG 8; type: biochemical; conditions: Penicillinase derived from Bacillus cereus, -- = No inhibition zone indicated
T1 construct: purchased Calbio Chemical Co. of U.S.A
Excerpt: *^1 Derived from Bacillus cereus, produced by Calbio Chemical Co. of […]

[6] = tested on: Staphylococcus aureus FDA 209P; assay: Antimicrobial spectrum, minimal inhibitory concentration; type: cell-based; conditions: FDA209P, Bacto Antibiotic Medium 3 / yeast extract / agar medium, about 10^6 colony forming units/ml
Protocol: (§1) (Note 1): As the culture medium, there was used a medium consisting of
(§2) 17.5 g of Bacto Antibiotic Medium 3 (produced by Difco Laboratories of
(§3) U.S.A.), 5.0 g of Bacto Yeast extract (produced by Difco Laboratories of
(§4) U.S.A.), […] of Bacto Agar (produced by Difco Laboratories of U.S.A.)
(§5) and 1000 ml of distilled water (without adjustment of pH), while as the
(§6) bacterial inoculation solution, there was used about 10^6 colony
(§7) 17.5 g of Bacto Antibiotic Medium 3 (produced by Difco Laboratories,
(§8) U.S.A.), […] of Bacto Yeast extract (produced by Difco Laboratories,
(§9) U.S.A.), 20 g of Bacto Agar (produced by Difco Laboratories, U.S.A.) and
(§10) 1000 ml of distilled water (without adjustment of pH), while as the
(§11) bacterial inoculation solution, there was employed about 10^6 colony

[7] = tested on: Alcaligenes faecalis IFO 13111; assay: as above; type: cell-based; conditions: IFO13111, Bacto Antibiotic Medium 3 / yeast extract / agar medium, about 10^6 colony forming units/ml
Protocol: as §1, §2, §3, §4, §5, §6, §7, §8, §9, §10, §11

[8] = tested on: Salmonella typhimurium IFO 12529; assay: as above; type: cell-based; conditions: Salmonella enterica, Bacto Antibiotic Medium 3 / yeast extract / agar medium, about 10^6 colony forming units/ml
Protocol: as §1, §2, §3, §4, §5, §6, §7, §8, §9, §10, §11

[9] = tested on: Pseudomonas aeruginosa IFO 3080; assay: as above; type: cell-based; conditions: IFO3080, Bacto Antibiotic Medium 3 / yeast extract / agar medium, about 10^6 colony forming units/ml
Protocol: as §1, §2, §3, §4, §5, §6, §7, §8, §9, §10, §11

[10] = tested on: Proteus morganii IFO 3168; assay: as above; type: cell-based; conditions: Morganella morganii, IFO3168, Bacto Antibiotic Medium 3 / yeast extract / agar medium, about 10^6 colony forming units/ml
Protocol: as §1, §2, §3, §4, §5, §6, §7, §8, §9, §10, §11

[11] = tested on: Citrobacter freundii IFO 12681; assay: as above; type: cell-based; conditions: IFO12681, Bacto Antibiotic Medium 3 / yeast extract / agar medium, about 10^6 colony forming units/ml
Protocol: as §1, §2, §3, §4, §5, §6, §7, §8, §9, §10, §11

[12] = tested on: Proteus vulgaris IFO 3988; assay: as above; type: cell-based; conditions: IFO3988, Bacto Antibiotic Medium 3 / yeast extract / agar medium, about 10^6 colony forming units/ml
Protocol: as §1, §2, §3, §4, §5, §6, §7, §8, §9, §10, §11

[13] = tested on: Serratia marcescens IFO 12648; assay: as above; type: cell-based; conditions: IFO12648, Bacto Antibiotic Medium 3 / yeast extract / agar medium, about 10^6 colony forming units/ml
Protocol: as §1, §2, §3, §4, §5, §6, §7, §8, §9, §10, §11

[14] = tested on: Klebsiella pneumoniae IFO 3317; assay: as above; type: cell-based; conditions: IFO3317, Bacto Antibiotic Medium 3 / yeast extract / agar medium, about 10^6 colony forming units/ml
Protocol: as §1, §2, §3, §4, §5, §6, §7, §8, §9, §10, §11

[15] = tested on: Acinetobacter calcoaceticus IFO 13006; assay: as above; type: cell-based; conditions: IFO13006, Bacto Antibiotic Medium 3 / yeast extract / agar medium, about 10^6 colony forming units/ml
Protocol: as §1, §2, §3, §4, §5, §6, §7, §8, §9, §10, §11

[16] = tested on: Escherichia coli NIHJ JC 2; assay: as above; type: cell-based; conditions: NIHJJC2, Bacto Antibiotic Medium 3 / yeast extract / agar medium, about 10^6 colony forming units/ml
Protocol: as §1, §2, §3, §4, §5, §6, §7, §8, §9, §10, §11

[17] = tested on: Proteus mirabilis ATCC 21100; assay: as above; type: cell-based; conditions: ATCC21100, Bacto Antibiotic Medium 3 / yeast extract / agar medium, about 10^6 colony forming units/ml
Protocol: as §1, §2, §3, §4, §5, §6, §7, §8, §9, §10, §11

[18] = tested on: Bacillus subtilis NIHJ PCI 219; assay: as above; type: cell-based; conditions: Bacto Antibiotic Medium 3 / yeast extract / agar medium, about 10^6 colony forming units/ml
Protocol: as §1, §2, §3, §4, §5, §6, §7, §8, §9, §10, §11

[19] = tested on: Bacillus cereus FDA 5; assay: as above; type: cell-based; conditions: FDA5, Bacto Antibiotic Medium 3 / yeast extract / agar medium, about 10^6 colony forming units/ml
Protocol: as §1, §2, §3, §4, §5, §6, §7, §8, §9, §10, §11

[20] = tested on: Micrococcus luteus IFO 12708; assay: as above; type: cell-based; conditions: IFO12708, Bacto Antibiotic Medium 3 / yeast extract / agar medium, about 10^6 colony forming units/ml
Protocol: as §1, §2, §3, §4, §5, §6, §7, §8, §9, §10, §11

[21] = Acute toxicity; type: in vivo; conditions: administered subcutaneously at a dose of 400 mg/kf
[22] = Stability in an aqueous solution; type: physicochemical
[23] = tested on: Staphylococcus aureus 308A-1; assay: Therapeutic effect in the experimental mouse infection; type: in vivo; conditions: 308A1, sc, Staphylococcus aureus 308A-1, route of administration Subcutaneous

T1 sequence (P10424 44-306): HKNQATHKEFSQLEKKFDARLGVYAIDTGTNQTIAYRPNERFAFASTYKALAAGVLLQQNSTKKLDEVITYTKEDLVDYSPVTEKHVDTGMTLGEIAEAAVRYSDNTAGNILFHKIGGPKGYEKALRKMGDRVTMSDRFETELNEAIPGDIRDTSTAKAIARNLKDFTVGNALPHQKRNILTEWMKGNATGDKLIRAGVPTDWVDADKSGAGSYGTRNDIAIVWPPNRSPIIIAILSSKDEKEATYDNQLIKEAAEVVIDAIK
Cephalosporinase, sequence (P05364 21-381): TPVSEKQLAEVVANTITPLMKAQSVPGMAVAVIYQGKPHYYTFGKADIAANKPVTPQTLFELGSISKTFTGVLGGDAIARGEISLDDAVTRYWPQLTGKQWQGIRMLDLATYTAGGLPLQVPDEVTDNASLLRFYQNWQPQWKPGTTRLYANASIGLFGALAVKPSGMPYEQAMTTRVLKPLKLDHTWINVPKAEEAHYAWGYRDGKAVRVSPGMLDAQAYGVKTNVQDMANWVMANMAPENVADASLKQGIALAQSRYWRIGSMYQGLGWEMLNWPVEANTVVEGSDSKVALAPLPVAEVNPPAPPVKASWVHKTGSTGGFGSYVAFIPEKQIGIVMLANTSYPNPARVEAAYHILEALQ

For CC(=O)N[C@H]1CON(C2(C(=O)O)CCC(=O)O2)C1=O (stereo partly shown) [TAN-588], the “interconversion of isolated peaks A and B” value [1] was “A turns into B, with B turning into A, about one hour later at any pH values”.

In the case of N[C@H]1CON([C@@]2(C(=O)O)CCC(=O)O2)C1=O [N-deacetyl TAN-588 (B type compound)], the Solubility in chloroform [2] is reported as “Sparingly soluble”, the “Solubility in diethyl ether” value [2] is reported as “Sparingly soluble” and the Solubility in dimethylsulfoxide [2] is reported as “Sparingly soluble”. For the same compound, the “Solubility in ethyl acetate” value [2] was “Sparingly soluble” and the Solubility in water [2] was “Soluble”.

For N[C@H]1CON(C2(C(=O)O)CCC(=O)O2)C1=O (stereo partly shown) [N-deacetyl TAN-588], the “inhibition zone, β-Lactamase: Without addition” value [3] was 22.5, the “inhibition zone, β-Lactamase: Cephalosporinase” value [4] was 21.5 and the “inhibition zone, β-Lactamase: Penicillinase” value [5] was 24.5. For the same compound, the MIC [6] was 50 mg/L (≈ 217 µM), the MIC [7] was 100 mg/L (≈ 434 µM) and the MIC [8] was 50 mg/L (≈ 217 µM). It also gave an MIC [9] of 50 mg/L (≈ 217 µM), an MIC [10] greater than 100 mg/L and an MIC [11] of 50 mg/L (≈ 217 µM). It also gave an MIC [12] of 100 mg/L (≈ 434 µM), an MIC [13] of 25 mg/L (≈ 109 µM) and an MIC [14] of 100 mg/L (≈ 434 µM). It also gave an MIC [15] of 50 mg/L (≈ 217 µM), an MIC [16] of 25 mg/L (≈ 109 µM) and an MIC [17] of 100 mg/L (≈ 434 µM). It also gave an MIC [18] of 12.5 mg/L (≈ 54.3 µM), an MIC [19] of 50 mg/L (≈ 217 µM) and an MIC [20] of 6.25 mg/L (≈ 27.2 µM). The “Solubility in diethyl ether” value [2] was “Sparingly soluble”, the Solubility in dimethylsulfoxide [2] was “Sparingly soluble” and the “Solubility in ethyl acetate” value [2] was “Sparingly soluble”. The Solubility in water [2] was “Soluble”.

For CC1(C)S[C@@H]2[C@H](NC(=O)Cc3ccccc3)C(=O)N2[C@H]1C(=O)O [PCG], the “inhibition zone, β-Lactamase: Without addition” value [3] was 22.

In the case of CO[C@@]1(NC(=O)CCC[C@@H](N)C(=O)O)C(=O)N2C(C(=O)O)=C(COC(N)=O)CS[C@@H]21 [CMC, reference compound], the “inhibition zone, β-Lactamase: Without addition” value [3] is reported as 34 and the “inhibition zone, β-Lactamase: Penicillinase” value [5] is reported as 34.

In the case of N[C@H]1CON([C@]2(C(=O)O)CCC(=O)O2)C1=O [N-deacetyl TAN-588 (A type compound)], the Solubility in chloroform [2] is reported as “Sparingly soluble”, the “Solubility in diethyl ether” value [2] is reported as “Sparingly soluble” and the Solubility in dimethylsulfoxide [2] is reported as “Sparingly soluble”. The “Solubility in ethyl acetate” value [2] was “Sparingly soluble” and the Solubility in water [2] was “Soluble”.

For CC(=O)N[C@H]1CON(C2(C(=O)O)CCC(=O)O2)C1=O (stereo partly shown) [TAN-588 sodium salt], the acute toxicity [21] was “no acute toxicity”, the “Stability in an aqueous solution” value ([22]; pH 3 and 7) was “slightly stable” and the “Stability in an aqueous solution” value ([22]; pH 5) was “Stable”. For the same compound, the “Stability in an aqueous solution” value ([22]; pH 9) was “unstable”, the ED50 [23] was 25 mg/kg and the MIC [6] was 3.13 mg/L. It also gave an MIC [7] of 50 mg/L, an MIC [8] of 50 mg/L and an MIC [9] greater than 100 mg/L. The MIC [10] was 100 mg/L, the MIC [11] was 100 mg/L and the MIC [12] was 25 mg/L. For the same compound, the MIC [13] was 50 mg/L, the MIC [14] was 100 mg/L and the MIC [15] was 25 mg/L. For the same compound, the MIC [16] was 50 mg/L, the MIC [17] was 25 mg/L and the MIC [18] was 3.13 mg/L. For the same compound, the MIC [19] was 12.5 mg/L, the MIC [20] was 0.39 mg/L and the Solubility in chloroform [2] was “Sparingly soluble”. The “Solubility in diethyl ether” value [2] was “Sparingly soluble”, the Solubility in dimethylsulfoxide [2] was “Soluble” and the “Solubility in ethyl acetate” value [2] was “Sparingly soluble”. For the same compound, the Solubility in water [2] was “Soluble”.

Source: patent US4656288A, “Antibiotics, their production and use” (Takeda Chemical Industries, Ltd., priority 1984, dated 1987)
